According to patent publication US10166253B2, “Positively charged co-polymers for use as antimicrobial agents” (priority 2014, dated 2019):

Experiments:
[1] = system: E. coli (NCTC 10418); test: Transmission electron microscopy of treated bacteria; assay type: cell-based, Escherichia coli
Description: (§1) Transmission electron microscopy (TEM) was applied to examine the ultrastructural changes in P. aeruginosa (PAO1), S. aureus (Wood 46) and E. coli (NCTC 10418) induced after treatment with GA and LL-37. […] This critical alteration in the outer membrane of E. coli has previously been described as a disintegration of the outer membrane into micelles and vesicle-like structures (Meincken, M., D. L. Holroyd, and M. Rautenbach, Atomic force microscopy study of the effect of antimicrobial peptides on the cell envelope of Escherichia coli. Antimicrob Agents Chemother, 2005. 49(10): p. 4085-92). […] After incubation with LL-37 and GA, we found burst cells, but this observation was most significant after treatment with LL-37 (FIG. 9). Scale bar, 0.5 μm. Experiments were performed as 2 replicates.

[2] = system: P. aeruginosa (Strain PAO1); test: Antimicrobial susceptibility testing by flow cytometry-based assay (LIVE/DEAD BacLight, Syto9/PI); assay type: cell-based
Method: E. coli (strain NCTC 10418), P. aeruginosa (Strain PAO1) and S. aureus (Wood 46, NCTC 7121) cells were grown in 5 mL of Todd Hewitt Broth medium (THB; Sigma-Aldrich). Bacteria were cultivated at 37° C. for 15 h in a 15 mL tube to obtain late-log phase cultures. Bacterial cultures were pelleted at 3096 g for 10 minutes; the supernatant was discarded and bacteria were resuspended in phosphate-buffered saline (PBS) supplemented with 40 mg/ml human albumin to mimic chemical properties of blood. Bacteria were diluted to a standardized inoculum of 10^9 CFU/mL.
Bacteria were treated with GA, LL-37, Piperacillin/Tazobactam or Vancomycin in varying concentrations, i.e. 50, 25, 10 or 2 μg/ml, for 30 minutes. As a positive control, bacteria were treated with 7% isopropanol. Hereafter, bacteria were pelleted at 3096 g for 10 minutes; the supernatant was discarded and bacteria were resuspended in PBS. The antimicrobial effect was tested in a well-established and widely used flow cytometry-based assay (LIVE/DEAD® BacLight™ Bacterial Viability and Counting Kit (L34856), Molecular Probes/Invitrogen) according to manufacturer's manual.
For each bacteria, the flow cytometry-based assay was repeated four times.
The antibacterial effect of GA on the gram-negative strain P. aeruginosa was tested by carrying out an experiment as described in Example 1. […] Although the untreated control stained positive for PI, this seemed to be explained by the capability of intact P. aeruginosa to secrete large quantities of DNA to the extracellular milieu.

[3] = system: E. coli (NCTC 10418); test: Binding of Alexa Fluor 488-labeled GA to bacteria (MFI by flow cytometry); set-up: species or system Escherichia coli; conditions: PBS + 50 mM NaCl, total salt 200 mM, GA 50 and 10 μg/ml
Method: (§2) GA was diluted in freshly made 0.1 M NaHCO3 and labeled with Alexa Fluor 488 according to manufacturer's instruction. Late-log phase E. coli (strain NCTC 10418), P. aeruginosa (strain PAO1, ATCC 15692) and S. aureus (Wood 46, NCTC 7121) were resuspended in PBS or PBS supplemented with 50 mM NaCl; treated with either 50 μg/ml or 10 μg/ml Alexa Fluor® 488-labeled GA and incubated on a shaker at 37° C. for 30 minutes. Hereafter, bacteria were diluted 1:100 in PBS and analyzed on a Novocyte™ flow cytometer.
(§3) This constitutes a problem when for example treating patients with cystic fibrosis. These patients have a high salt concentration in their lungs of about 150-200 mM, and it is therefore critical that drugs used for treating these patients are active at such high salt concentrations (Gilljam H et al., Scand J Clin Lab Invest. 1989 April; 49(2):121-4). Therefore, the binding capacity of GA to bacteria resuspended in PBS or in PBS supplemented with 50 mM NaCl. PBS+50 mM NaCl results in a total salt concentration of 200 mM. […]
(§4) Mean Fluorescence intensities (MFI) were assessed by flow cytometry to quantify the binding capacity of GA to the bacterial membrane. […]

[4] = system: E. coli (strain NCTC 10418); test: Colony-forming unit (CFU) counting; assay type: cell-based, Escherichia coli; conditions: 30 minutes at 37° C. in PBS, even at 2 μg/ml
Method: (§5) Late-log phase E. coli (strain NCTC 10418), P. aeruginosa (strain PAO1, ATCC 15692) and S. aureus (Wood 46, NCTC 7121) were resuspended in PBS and treated with different concentrations of glatiramer acetate (GA) or LL-37 (Innovagen, Lund, Sweden) and incubated on a shaker for 30 minutes at 37° C. Subsequently, a dilution series was performed to achieve a suitable amount of bacteria on the 5% blood agar plates. The 5% blood agar streak plates were cultured at 37° C. for 16 h and the resulting CFUs on the blood agar plates were imaged with a digital camera and counted with the aid of the software ImageJ 1.48v.

[5] = system: multi-resistant P. aeruginosa strain (CCUG59626); test: Flow cytometry viability assay on multiresistant strain; assay type: cell-based, Pseudomonas aeruginosa; conditions: CCUG59626, ~10^8 cells/ml
Method: A multi-resistant P. aeruginosa strain (CCUG59626) (˜10^8 cells/ml) was incubated with varying concentrations of GA and LL-37. […] All experiments were performed as four replicates.

[6] = system: P. aeruginosa (PAO1); test: Binding of Alexa Fluor 488-labeled GA to bacteria (MFI by flow cytometry); set-up: species or system Pseudomonas aeruginosa; conditions: PBS + 50 mM NaCl, total salt 200 mM, GA 50 and 10 μg/ml
Method: as §2, §3, §4

[7] = system: S. aureus (Wood 46); test: Transmission electron microscopy of treated bacteria; assay type: cell-based, Staphylococcus aureus
Description: as §1

[8] = system: P. aeruginosa (strain PAO1, ATCC 15692); test: Colony-forming unit (CFU) counting; assay type: cell-based, Pseudomonas aeruginosa; conditions: 30 minutes at 37° C. in PBS, in comparison with LL-37
Method: as §5

[9] = within the 30 minutes of treatment

Glatiramer acetate [GA]
ultrastructural changes (TEM, in words) [1]: Signs of damage to the bacterial membrane
antimicrobial activity (in words) [2, 9]: more potent than when treating bacteria with 7% isopropanol
decreased bacterial inoculum [2, 9]: ~75%
increased PI positivity ([2]; within the 30 minutes of treatment (FIG. 4 overview)): ~50%
binding capacity to bacteria (MFI, in words) [3]: retained its binding capacity
antibacterial effect by CFU counting (in words) [4]: enhanced ability to kill E. coli
susceptibility of multiresistant strain (in words) [5]: highly susceptible
binding capacity to bacteria (MFI, in words) [6]: retained its binding capacity
ultrastructural changes (TEM, in words) [7]: burst cells
antibacterial effect by CFU counting (in words) [8]: higher antimicrobial activity
